The subject of assay [1] is HTT. The assay can be described thus: RT-qPCR splicing assay, HTT AJ/CJ mRNA. The assay is classed as cell-based, human. To be noted: Homo sapiens, 24 h, A673 or K562 cells; for IC50: decrease in canonical junction mRNA; for AC50: increase in alternative junction mRNA. In short, it runs like this: (§1)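 A673 or K562 cells were treated for 24 h at 37° C with an 11-point 3-fold compound series (top 10 uM, DMSO ≤0.25%). Lysates underwent RT-qPCR for the canonical (CJ) and alternative-exon (AJ) junctions, normalized to GAPDH, GUSB or PPIA, then to DMSO (ΔΔCt), giving RQ and percentage response.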
(Real-time PCR tracks product formation cycle by cycle.)

The test system of assay [2] is MYB. The assay can be described thus: Gene panel canonical junction qPCR assay, MYB CJ mRNA (Table 7). The assay is classed as cell-based. To be noted: Homo sapiens, read-out: MYB CJ mRNA decrease IC50. In a few lines: (§2)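 A673 or K562 cells treated with compound; canonical exon-junction mRNA measured by RT-qPCR with junction-spanning primers/probe, normalised to GAPDH, GUSB or PPIA and DMSO (ΔΔCt, RQ). Percentage response set from fixed ΔCt assay windows, fitted to a 4-parameter logistic; IC50 is concentration giving 50% CJ decrease.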

The subject of assay [3] is MYB. The assay can be described thus: RT-qPCR splicing assay, MYB AJ/CJ mRNA. To be noted: Homo sapiens, A673 or K562 cells, 24 hours; for IC50: decrease in canonical junction mRNA; for AC50: increase in alternative junction mRNA. Type of assay: cell-based. In short, it runs like this: as §1
A further assay deals with SMN2. The assay can be described thus: Gene panel canonical junction qPCR assay, SMN2 CJ mRNA (Table 7). To be noted: Homo sapiens, read-out: SMN2 CJ mRNA decrease IC50. Type of assay: cell-based. In short, it runs like this:
as §2

The test system of the next assay is Target C. The assay can be described thus: Gene panel canonical junction qPCR assay, Target C CJ mRNA (Table 7). The settings on record: Homo sapiens, read-out: Target C CJ mRNA decrease IC50. The assay is classed as cell-based, human. In a few lines: as §2
The test system of assay [4] is HTT. The assay can be described thus: Gene panel canonical junction qPCR assay, HTT CJ mRNA (Table 7). The assay is classed as cell-based, human. To be noted: Homo sapiens, read-out: HTT CJ mRNA decrease IC50. In a few lines:
as §2

These results are taken from patent publication US20240400584A1, “COMPOUNDS AND METHODS FOR MODULATING SPLICING” (REMIX THERAPEUTICS INC., priority 2021, published 2024).

As for `CN1C[C@@H]2CN(c3ccc4c(n3)OCc3cc(-n5cccn5)ccc3-4)C[C@@H]2C1` [Compound 170], the IC50 (commonly the concentration at which inhibition is half-maximal) is 1 to 10 µM with HTT [1]; more than 10 µM with MYB [2]; more than 10 µM in the assay on MYB [3]; 1 to 10 µM with SMN2; more than 10 µM in the assay with Target C; 1 to 10 µM with HTT [4]. The AC50 in the assay on HTT [1] and in the assay with MYB [3] was 1 to 10 µM in each case.

As to `COc1cc(-c2ccc3c(c2)COc2nc(OC4CC5CC(F)(F)C(C4)N5)ccc2-3)cnn1` (stereo not drawn) [Compound 225, 6,6-difluoro-3-{[8-(6-methoxypyridazin-4-yl)-6H-isochromeno[3,4-b]pyridin-3-yl]oxy}-8-azabicyclo[3.2.1]octane], the IC50 was 0.1 to 1 µM in the assay on HTT [1]; more than 10 µM in the assay with MYB [2]; more than 10 µM in the assay with MYB [3]; 1 to 10 µM in the assay with SMN2; more than 10 µM in the assay on Target C; 0.1 to 1 µM in the assay on HTT [4]. The AC50 (as a rule, the midpoint of the concentration-response curve, whichever way the signal moves) in the assay on HTT [1] is 1 to 10 µM; in the assay on MYB [3], more than 10 µM.

Take `COc1cc(-c2ccc3c(c2)COc2nc(N4CCC(NC5CC5)C4)ccc2-3)cnn1` (stereo not drawn) [Compound 255, N-cyclopropyl-1-[8-(6-methoxypyridazin-4-yl)-6H-isochromeno[3,4-b]pyridin-3-yl]pyrrolidin-3-amine]: the half-maximal inhibitory concentration (IC50) in the assay with HTT [1] lay within 0.1 to 1 µM; in the assay on MYB [2], 1 to 10 µM; in the assay on MYB [3] it was 1 to 10 µM; with SMN2, 0.1 to 1 µM; in the assay with Target C it was 1 to 10 µM; in the assay on HTT [4], 0.1 to 1 µM. Also, the concentration at half-maximal activity (AC50) in the assay with HTT [1] and in the assay with MYB [3] was 1 to 10 µM in each case.

Regarding `C[C@]12CC[C@](C)(C[C@@H](Oc3ccc4c(n3)OCc3cc(-n5cccn5)ccc3-4)C1)N2` [Compound 228], the IC50 in the assay on HTT [1] was in the range of 0.1 to 1 µM; in the assay on MYB [2] it was 1 to 10 µM; in the assay with MYB [3], 1 to 10 µM; in the assay with SMN2, 0.1 to 1 µM; in the assay on Target C it was 1 to 10 µM; in the assay on HTT [4] it was 0.1 to 1 µM. In addition, the half-maximal activity concentration (AC50) with HTT [1] and with MYB [3] was 1 to 10 µM in each case.

Turning to `COc1cc(-c2ccc3c(c2)COc2nc(O[C@@H]4C[C@H]5CC[C@@H](C4)N5)ccc2-3)cnn1` [Compound 223, (1R,3R,5S)-3-{[8-(6-methoxypyridazin-4-yl)-6H-isochromeno[3,4-b]pyridin-3-yl]oxy}-8-azabicyclo[3.2.1]octane], the concentration for half-maximal inhibition (IC50) is less than 0.1 µM in the assay on HTT [1]; 0.1 to 1 µM in the assay on MYB [2]; 0.1 to 1 µM with MYB [3]; less than 0.1 µM in the assay on SMN2; less than 0.1 µM in the assay on Target C; less than 0.1 µM in the assay on HTT [4]. Further, the half-maximal activity concentration (AC50) in the assay on HTT [1] and with MYB [3] was less than 0.1 µM each time.

On to `COc1cc(-c2ccc3c(c2)COc2nc(N4CCN[C@@H](C5CC5)C4)ccc2-3)cnn1` [Compound 296], for which the half-maximal inhibitory concentration (IC50) with HTT [1] was 0.1 to 1 µM; in the assay on MYB [2], 0.1 to 1 µM; in the assay with MYB [3] it was 0.1 to 1 µM; in the assay on SMN2, less than 0.1 µM; in the assay on Target C, 0.1 to 1 µM; with HTT [4], 0.1 to 1 µM. The concentration at half-maximal activity (AC50) in the assay with HTT [1] and with MYB [3] was 0.1 to 1 µM in each case.

Consider `Fc1ccn(-c2ccc3c(c2)COc2nc(O[C@@H]4C[C@H]5CC[C@@H](C4)N5)ccc2-3)n1` [Compound 230, (1R,3R,5S)-3-{[8-(3-fluoropyrazol-1-yl)-6H-isochromeno[3,4-b]pyridin-3-yl]oxy}-8-azabicyclo[3.2.1]octane], for which the IC50 with HTT [1] lay within 0.1 to 1 µM; in the assay on MYB [2], 0.1 to 1 µM; in the assay with MYB [3], 0.1 to 1 µM; in the assay on SMN2, 0.1 to 1 µM; with Target C, 1 to 10 µM; with HTT [4], 0.1 to 1 µM. Besides, the AC50 in the assay on HTT [1] was 0.1 to 1 µM; in the assay on MYB [3] it was 1 to 10 µM.

`Fc1cc2c(cc1-c1cn[nH]c1)COc1nc(O[C@@H]3C[C@H]4CC[C@@H](C3)N4)ccc1-2` [Compound 260]: the concentration for half-maximal inhibition (IC50) in the assay with HTT [1] was less than 0.1 µM; in the assay on MYB [2], 0.1 to 1 µM; in the assay with MYB [3], 0.1 to 1 µM; in the assay on SMN2, less than 0.1 µM; in the assay on Target C it was 0.1 to 1 µM; in the assay with HTT [4], less than 0.1 µM. The half-maximal activity concentration (AC50) in the assay on HTT [1] and in the assay on MYB [3] was less than 0.1 µM throughout.

For the compound `COc1cc(-c2ccc3c(c2)COc2cc(N4CCC(NC(C)(C)C)C4)ncc2-3)cnn1` (stereo not drawn) [Compound 289, N-(tert-butyl)-1-(8-(6-methoxypyridazin-4-yl)-6H-isochromeno [4,3-c]pyridin-3-yl)pyrrolidin-3-amine], the IC50 with HTT [1] was 0.1 to 1 µM; in the assay on MYB [2], 0.1 to 1 µM; in the assay with MYB [3], 0.1 to 1 µM; in the assay on SMN2 it was less than 0.1 µM; in the assay on Target C, 1 to 10 µM; in the assay with HTT [4], 0.1 to 1 µM. The concentration at half-maximal activity (AC50) in the assay with HTT [1] and in the assay with MYB [3] was 1 to 10 µM throughout.

As for `c1cnn(-c2ccc3c(c2)COc2nc(S[C@@H]4C[C@H]5CC[C@@H](C4)N5)ccc2-3)c1` [Compound 193], the half-inhibitory concentration (IC50) in the assay on HTT [1] is more than 10 µM; with MYB [2], 1 to 10 µM; with MYB [3], 1 to 10 µM; in the assay on SMN2, more than 10 µM; in the assay on Target C, more than 10 µM; with HTT [4], 1 to 10 µM. Also, the AC50 in the assay with HTT [1] and in the assay with MYB [3] was more than 10 µM in each case.

Regarding `CC(C)(C)NC1CCN(c2ccc3c(n2)OCc2cc(-n4nccn4)ccc2-3)C1` (stereo not drawn) [Compound 250, N-tert-butyl-1-[8-(1,2,3-triazol-2-yl)-6H-isochromeno[3,4-b]pyridin-3-yl]pyrrolidin-3-amine 2,2,2-trifluoroacetate], the IC50 in the assay on HTT [1] was in the range of 1 to 10 µM; in the assay with MYB [2], 1 to 10 µM; in the assay on MYB [3], 1 to 10 µM; with SMN2 it was 0.1 to 1 µM; in the assay on Target C, 1 to 10 µM; with HTT [4] it was 1 to 10 µM. Besides, the AC50 lay within 0.1 to 1 µM in the assay on HTT [1] and 1 to 10 µM with MYB [3].

`CN(c1ccc2c(n1)OCc1cc(-n3cccn3)ccc1-2)[C@H]1C[C@]2(C)CC[C@](C)(C1)N2` [Compound 180]: the IC50 was less than 0.1 µM in the assay with HTT [1]; 0.1 to 1 µM in the assay on MYB [2]; 0.1 to 1 µM in the assay on MYB [3]; less than 0.1 µM in the assay on SMN2; 0.1 to 1 µM in the assay on Target C; less than 0.1 µM in the assay with HTT [4]. Moreover, the AC50 is less than 0.1 µM in the assay with HTT [1] and 0.1 to 1 µM in the assay with MYB [3].

On to `CC1(C)CC(N(c2ccc3c(n2)OCc2cc(-n4cccn4)ccc2-3)C2CC2)CC(C)(C)N1` [Compound 204], for which the 50% inhibitory concentration (IC50) is 1 to 10 µM in the assay on HTT [1]; 1 to 10 µM with MYB [2]; 1 to 10 µM in the assay with MYB [3]; 1 to 10 µM in the assay with SMN2; more than 10 µM in the assay on Target C; 1 to 10 µM in the assay with HTT [4]. Moreover, the AC50 in the assay with HTT [1] and in the assay with MYB [3] was more than 10 µM throughout.

As to `COc1cc(-c2ccc3c(c2)COc2nc(N4CCC(N5CCC5)C4)ccc2-3)cnn1` (stereo not drawn) [Compound 312], the IC50 in the assay with HTT [1] is 0.1 to 1 µM; in the assay on MYB [2], 1 to 10 µM; in the assay with MYB [3] it was 1 to 10 µM; in the assay on SMN2 it was 0.1 to 1 µM; in the assay with Target C, more than 10 µM; in the assay with HTT [4], 0.1 to 1 µM. In addition, the AC50 in the assay with HTT [1] and in the assay on MYB [3] was 1 to 10 µM in each case.

As to `CNC1CCN(c2ccc3c(n2)OCc2cc(-c4cnnc(OC)c4)ccc2-3)CC1` [Compound 300, 1-[8-(6-methoxypyridazin-4-yl)-6H-isochromeno[3,4-b]pyridin-3-yl]-N-methylpiperidin-4-amine], the half-inhibitory concentration (IC50) in the assay with HTT [1] is 1 to 10 µM; with MYB [2], more than 10 µM; with MYB [3], more than 10 µM; in the assay on SMN2 it was 0.1 to 1 µM; with Target C, 1 to 10 µM; with HTT [4], 1 to 10 µM. In addition, the half-maximal activity concentration (AC50) in the assay on HTT [1] was 1 to 10 µM; with MYB [3], more than 10 µM.
